Measurements as given in US12404304B1, “Telomerase reverse transcriptase (TERT) expression enhancing compounds and methods for using the same” (Sierra Sciences, LLC, priority 2007, dated 2025).

Assays:
[1] = system: human TERT expression (hTERT mRNA); assay: Quantitative real-time RT-PCR of hTERT mRNA expression (Ct, transcripts) in compound-treated cells; type: cell-based
How it was run: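 Read-out is cycle threshold, the cycle at which probe fluorescence released by Taq 5′-nuclease activity crosses a set level; Ct falls as hTERT mRNA rises. cDNA of treated and untreated cells was compared, with starting transcripts quantified against a known-cDNA standard curve.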

[2] = system: viable cells in culture; assay: Cell viability assay (CellTiter-Glo Luminescent Cell Viability Assay, ATP quantitation, percent of vehicle control)

Compound: Cc1cc(OCC(=O)N/N=C/c2c(C)nn(-c3ccccc3)c2O)ccc1Cl [compound 1485]
- Average Number of hTERT Transcripts [1]: 48.25
- Average Cell Viability after 24 Hours (% DMSO) [2]: 112.70 % DMSO

Compound: CCCc1cc(=O)n2ncc(-c3cccc(Br)c3)c2[nH]1 [compound 1486]
- Average Number of hTERT Transcripts [1]: 51.80
- Average Cell Viability after 24 Hours (% DMSO) [2]: 73.20 % DMSO

Compound: Cc1ccc(-c2cc(C(=O)NCCc3ccc(S(N)(=O)=O)cc3)no2)cc1 [compound 1487]
- Average Number of hTERT Transcripts [1]: 1.93
- Average Cell Viability after 24 Hours (% DMSO) [2]: 95.31 % DMSO

Compound: O=C(CSc1nnc(-c2ccncc2)o1)N1CCN(c2ccccc2F)CC1 [compound 1488]
- Average Number of hTERT Transcripts [1]: 3.19
- Average Cell Viability after 24 Hours (% DMSO) [2]: 86.72 % DMSO

Compound: NCc1ccc(CNC(=O)c2cc(-c3cccs3)on2)cc1 [compound 1489]
- Average Number of hTERT Transcripts [1]: 3.77
- Average Cell Viability after 24 Hours (% DMSO) [2]: 107.24 % DMSO

Compound: O=C(O)CCC(=O)Nc1nc(-c2ccccn2)cs1 [compound 1490]
- Average Number of hTERT Transcripts [1]: 3.91
- Average Cell Viability after 24 Hours (% DMSO) [2]: 111.59 % DMSO

Compound: O=C(NCCSCc1ccccc1)c1cc(-c2cccs2)on1 [compound 1491]
- Average Number of hTERT Transcripts [1]: 5.09
- Average Cell Viability after 24 Hours (% DMSO) [2]: 102.96 % DMSO

Compound: O=C(CNC(=O)c1cc(-c2cccs2)on1)c1ccccc1 [compound 1492]
- Average Number of hTERT Transcripts [1]: 6.45
- Average Cell Viability after 24 Hours (% DMSO) [2]: 91.36 % DMSO

Compound: O=C(CSc1nnc(-c2ccncc2)o1)NCc1ccccc1Br [compound 1493]
- Average Number of hTERT Transcripts [1]: 6.84
- Average Cell Viability after 24 Hours (% DMSO) [2]: 100.09 % DMSO

Compound: COc1ccc(CCNC(=O)c2cc(-c3cccs3)on2)cc1 [compound 1494]
- Average Number of hTERT Transcripts [1]: 9.18
- Average Cell Viability after 24 Hours (% DMSO) [2]: 110.08 % DMSO

Compound: Cc1ccc(-c2cc(C(=O)Nc3nc4ccc(S(C)(=O)=O)cc4s3)no2)cc1 [compound 1495]
- Average Number of hTERT Transcripts [1]: 10.81
- Average Cell Viability after 24 Hours (% DMSO) [2]: 85.84 % DMSO

Compound: O=C(Nc1nc(-c2ccccn2)cs1)c1ccc(-c2nc3ccccc3s2)s1 [compound 1496]
- Average Number of hTERT Transcripts [1]: 11.43
- Average Cell Viability after 24 Hours (% DMSO) [2]: 12.76 % DMSO

Compound: COc1cccc(CCNC(=O)c2cc(-c3cccs3)on2)c1 [compound 1497]
- Average Number of hTERT Transcripts [1]: 14.74
- Average Cell Viability after 24 Hours (% DMSO) [2]: 92.73 % DMSO

Compound: O=C(NCCc1c[nH]c2c(OCc3ccccc3)cccc12)c1cc(-c2cccs2)on1 [compound 1498]
- Average Number of hTERT Transcripts [1]: 16.50
- Average Cell Viability after 24 Hours (% DMSO) [2]: 94.63 % DMSO

Compound: O=C(NCc1nccs1)c1cc(-c2cccs2)on1 [compound 1499]
- Average Number of hTERT Transcripts [1]: 17.01
- Average Cell Viability after 24 Hours (% DMSO) [2]: 119.54 % DMSO

Compound: CN1CCN(c2ccc(CNC(=O)c3cc(-c4cccs4)on3)cc2)CC1 [compound 1500]
- Average Number of hTERT Transcripts [1]: 17.14
- Average Cell Viability after 24 Hours (% DMSO) [2]: 110.86 % DMSO

Compound: COc1cc(CCNC(=O)c2cc(-c3cccs3)on2)cc(OC)c1 [compound 1501]
- Average Number of hTERT Transcripts [1]: 24.13
- Average Cell Viability after 24 Hours (% DMSO) [2]: 99.31 % DMSO

Compound: COc1ccc(CCNC(=O)c2cc(-c3cccs3)on2)cc1O [compound 1502]
- Average Number of hTERT Transcripts [1]: 28.74
- Average Cell Viability after 24 Hours (% DMSO) [2]: 91.65 % DMSO

Compound: Cc1cc(CNC(=O)c2cc(-c3cccs3)on2)no1 [compound 1503]
- Average Number of hTERT Transcripts [1]: 28.94
- Average Cell Viability after 24 Hours (% DMSO) [2]: 108.11 % DMSO

Compound: CN(C)S(=O)(=O)c1ccc(C(=O)Nc2nc(-c3ccccn3)cs2)cc1 [compound 1504]
- Average Number of hTERT Transcripts [1]: 40.27
- Average Cell Viability after 24 Hours (% DMSO) [2]: 76.43 % DMSO

Compound: O=C(Nc1nc(-c2ccccn2)cs1)c1cc(Cl)sc1Cl [compound 1505]
- Average Number of hTERT Transcripts [1]: 43.28
- Average Cell Viability after 24 Hours (% DMSO) [2]: 70.89 % DMSO

Compound: O=C(NCCN1CCOCC1)c1cc(-c2ccccc2)on1 [compound 1506]
- Average Number of hTERT Transcripts [1]: 52.39
- Average Cell Viability after 24 Hours (% DMSO) [2]: 84.31 % DMSO

Compound: CCCCOCCCNC(=O)c1cc(-c2cccs2)on1 [compound 1507]
- Average Number of hTERT Transcripts [1]: 58.76
- Average Cell Viability after 24 Hours (% DMSO) [2]: 102.58 % DMSO

Compound: O=C(NCCOc1ccccc1)c1cc(-c2cccs2)on1 [compound 1508]
- Average Number of hTERT Transcripts [1]: 59.45
- Average Cell Viability after 24 Hours (% DMSO) [2]: 94.22 % DMSO

Compound: O=C(NCCN1CCNC1=O)c1cc(-c2cccs2)on1 [compound 1509]
- Average Number of hTERT Transcripts [1]: 72.08
- Average Cell Viability after 24 Hours (% DMSO) [2]: 73.34 % DMSO

Compound: CN(CC1CCCO1)S(=O)(=O)c1ccc(C(=O)Nc2nc(-c3ccccn3)cs2)cc1 (stereo not shown) [compound 1510]
- Average Number of hTERT Transcripts [1]: 76.03
- Average Cell Viability after 24 Hours (% DMSO) [2]: 83.99 % DMSO

Compound: CC(C)CCNC(=O)c1cc(-c2cccs2)on1 [compound 1511]
- Average Number of hTERT Transcripts [1]: 88.76
- Average Cell Viability after 24 Hours (% DMSO) [2]: 75.76 % DMSO

Compound: Cc1ccc(S(=O)(=O)CC(=O)Nc2ncc(-c3ccccn3)s2)cc1 [compound 1512]
- Average Number of hTERT Transcripts [1]: 102.66
- Average Cell Viability after 24 Hours (% DMSO) [2]: 81.39 % DMSO

Compound: Cc1ccn(CCCNC(=O)c2cc(-c3cccs3)on2)n1 [compound 1513]
- Average Number of hTERT Transcripts [1]: 102.76
- Average Cell Viability after 24 Hours (% DMSO) [2]: 82.67 % DMSO

Compound: CN1CCN(CCCNC(=O)c2cc(-c3cccs3)on2)CC1 [compound 1514]
- Average Number of hTERT Transcripts [1]: 102.98
- Average Cell Viability after 24 Hours (% DMSO) [2]: 98.72 % DMSO

Compound: CN(C)CCCCNC(=O)c1cc(-c2cccs2)on1 [compound 1515]
- Average Number of hTERT Transcripts [1]: 113.63
- Average Cell Viability after 24 Hours (% DMSO) [2]: 96.89 % DMSO

Compound: Cn1c(-c2nnc(SCC(=O)NCc3nc4ccccc4n3C)o2)cc2ccccc21 [compound 1516]
- Average Number of hTERT Transcripts [1]: 127.39
- Average Cell Viability after 24 Hours (% DMSO) [2]: 87.09 % DMSO

Compound: CSCCNC(=O)c1cc(-c2cccs2)on1 [compound 1517]
- Average Number of hTERT Transcripts [1]: 140.89
- Average Cell Viability after 24 Hours (% DMSO) [2]: 112.40 % DMSO

Compound: O=C(NCCCN1CCCC1=O)c1cc(-c2cccs2)on1 [compound 1518]
- Average Number of hTERT Transcripts [1]: 302.69
- Average Cell Viability after 24 Hours (% DMSO) [2]: 104.12 % DMSO

Compound: Cc1cnc(CNC(=O)c2cc(-c3cccs3)on2)cn1 [compound 1519]
- Average Number of hTERT Transcripts [1]: 303.81
- Average Cell Viability after 24 Hours (% DMSO) [2]: 110.34 % DMSO

Compound: COc1cc(CCNC(=O)c2cc(-c3cccs3)on2)ccc1O [compound 1520]
- Average Number of hTERT Transcripts [1]: 322.93
- Average Cell Viability after 24 Hours (% DMSO) [2]: 98.51 % DMSO

Compound: O=C(NCCc1ccccn1)c1cc(-c2cccs2)on1 [compound 1521]
- Average Number of hTERT Transcripts [1]: 329.90
- Average Cell Viability after 24 Hours (% DMSO) [2]: 106.64 % DMSO

Compound: O=C(NCCCn1ccnc1)c1cc(-c2ccccc2)on1 [compound 1522]
- Average Number of hTERT Transcripts [1]: 345.10
- Average Cell Viability after 24 Hours (% DMSO) [2]: 80.72 % DMSO

Compound: O=C(NCCc1ccncc1)c1cc(-c2cccs2)on1 [compound 1524]
- Average Number of hTERT Transcripts [1]: 562.51
- Average Cell Viability after 24 Hours (% DMSO) [2]: 103.34 % DMSO

Compound: O=C(OCc1ccc(Cl)cc1Cl)c1ccc(-c2nnc(-c3ccccc3)o2)cc1 [compound 1525]
- Average Number of hTERT Transcripts [1]: 7.73
- Average Cell Viability after 24 Hours (% DMSO) [2]: 83.30 % DMSO

Compound: CCOc1cccc(/C=N/NC(=O)CNc2ccc(C)cc2)c1O [compound 1526]
- Average Number of hTERT Transcripts [1]: 8.14
- Average Cell Viability after 24 Hours (% DMSO) [2]: 79.56 % DMSO

Compound: O=C(N/N=C/c1c(O)ccc2ccccc12)c1ccc(CO)nc1 [compound 1527]
- Average Number of hTERT Transcripts [1]: 15.53
- Average Cell Viability after 24 Hours (% DMSO) [2]: 89.01 % DMSO

Compound: CCN(CC)c1ccc(/C=N/NC(=O)C2CC2c2ccccc2)c(O)c1 (stereo not shown) [compound 1528]
- Average Number of hTERT Transcripts [1]: 24.18
- Average Cell Viability after 24 Hours (% DMSO) [2]: 69.89 % DMSO

Compound: COc1cccc(/C=N/NC(=O)C2CC2c2ccccc2)c1O (stereo not shown) [compound 1529]
- Average Number of hTERT Transcripts [1]: 29.94
- Average Cell Viability after 24 Hours (% DMSO) [2]: 102.67 % DMSO

Compound: C/C(=N\NC(=O)c1ccccc1O)c1ccccc1O [compound 1530]
- Average Number of hTERT Transcripts [1]: 30.46
- Average Cell Viability after 24 Hours (% DMSO) [2]: 96.99 % DMSO

Compound: C/C(=N\NC(=O)c1c(O)ccc2ccccc12)c1ccccc1C(=O)O [compound 1531]
- Average Number of hTERT Transcripts [1]: 32.70
- Average Cell Viability after 24 Hours (% DMSO) [2]: 110.91 % DMSO

Compound: Cc1c(OS(=O)(=O)c2ccccc2)ccc2c3c(c(=O)oc12)CCCC3 [compound 1533]
- Average Number of hTERT Transcripts [1]: 35.76
- Average Cell Viability after 24 Hours (% DMSO) [2]: 99.57 % DMSO

Compound: CS(=O)(=O)N1CCN(c2ccc(NC(=O)c3cccc(OCc4ccccc4)c3)cc2)CC1 [compound 1534]
- Average Number of hTERT Transcripts [1]: 3.18
- Average Cell Viability after 24 Hours (% DMSO) [2]: 90.05 % DMSO

Compound: Cc1ccc(S(=O)(=O)Nc2ccc([N+](=O)[O-])cc2)cc1 [compound 1535]
- Average Number of hTERT Transcripts [1]: 3.69
- Average Cell Viability after 24 Hours (% DMSO) [2]: 88.02 % DMSO

Compound: COC(=O)COc1ccc(NC(=O)c2ccccc2I)cc1 [compound 1536]
- Average Number of hTERT Transcripts [1]: 7.34
- Average Cell Viability after 24 Hours (% DMSO) [2]: 65.12 % DMSO

Compound: COC(=O)COc1ccc(NC(=O)c2cccc(C)c2)cc1 [compound 1537]
- Average Number of hTERT Transcripts [1]: 9.58
- Average Cell Viability after 24 Hours (% DMSO) [2]: 67.92 % DMSO

Compound: CC(C)c1cccc(C(C)C)c1NC(=O)c1ccc(OCC(=O)OC2CCCCC2)cc1 [compound 1538]
- Average Number of hTERT Transcripts [1]: 10.53
- Average Cell Viability after 24 Hours (% DMSO) [2]: 74.17 % DMSO

Compound: Cc1ccc(C)c(NC(=O)c2ccccc2NS(=O)(=O)c2cc([N+](=O)[O-])ccc2C)c1 [compound 1539]
- Average Number of hTERT Transcripts [1]: 37.11
- Average Cell Viability after 24 Hours (% DMSO) [2]: 65.11 % DMSO

Compound: S=C(Nc1ccc(Oc2ccccc2)cc1)Nc1ccc(Cl)cc1Cl [compound 1540]
- Average Number of hTERT Transcripts [1]: 9.11
- Average Cell Viability after 24 Hours (% DMSO) [2]: 68.10 % DMSO

Compound: COc1ccc(NC(=S)NCc2ccco2)c(OC)c1 [compound 1541]
- Average Number of hTERT Transcripts [1]: 3.41
- Average Cell Viability after 24 Hours (% DMSO) [2]: 104.75 % DMSO

Compound: CCN(Cc1ccncc1)C(=O)c1cccs1 [compound 1542]
- Average Number of hTERT Transcripts [1]: 3.43
- Average Cell Viability after 24 Hours (% DMSO) [2]: 111.82 % DMSO
